Like-named read-outs stand apart in the source and are kept apart here.
Experiments:
E. coli GC 1073 = test: MIC, broth microdilution; conditions: Escherichia coli
Staph. aureus Smith = test: In vivo activity (oral, iv; ED50) against Staph. aureus Smith in mice
Protocol: Representative examples of compounds of Formula I were tested for the oral efficacy using S. aureus Smith in mice.

S. pneumoniae+ GC 4465 = test: MIC, broth microdilution; conditions: Streptococcus pneumoniae
S. aureus GC 6467 = test: MIC, broth microdilution; conditions: Staphylococcus aureus
Protocol: (§1) Antimicrobial susceptibility testing. The in vitro activities of the antibiotics are determined by the broth microdilution method as recommended by the National Committee for Clinical Laboratory Standards (NCCLS) (1). Mueller-Hinton II broth (MHBII)(BBL Cockeysville, Md.) is the medium employed in the testing procedures. Microtiter plates containing serial dilutions of each antimicrobial agent are inoculated with each organism to yield the appropriate density (10^5 CFU/ml) in a 100 μl final volume. The plates are incubated for 18-22 hours at 35° C. in ambient air.
(§2) Representative compounds were first incubated in mouse serum for an hour prior to the in vitro testing against a panel of selected gram-positive and gram-negative bacteria strains. All compounds were also pre-incubated in water for an hour prior to testing as control.

E. faecalis GC 2267 = test: MIC, broth microdilution; conditions: Enterococcus faecalis
E. coli GC 4559 = test: MIC, broth microdilution; conditions: Escherichia coli
S. aureus GC 1079 = test: MIC, broth microdilution; conditions: Staphylococcus aureus
S. aureus GC 4536 = test: MIC, broth microdilution; conditions: Staphylococcus aureus
S. pneumoniae* GC 4465 = test: MIC, broth microdilution; conditions: Streptococcus pneumoniae
c. albicans GC 3066 = test: MIC, broth microdilution
E. coli GC 2235 = test: MIC, broth microdilution; conditions: Escherichia coli
E. coli GC 6465 = test: MIC, broth microdilution; conditions: Escherichia coli
Protocol: as §1, §2

E. coli GC 2272 = test: MIC, broth microdilution; conditions: Escherichia coli
S. aureus GC 1131 = test: MIC, broth microdilution; conditions: Staphylococcus aureus
S. agalactiae GC 4564 = test: MIC, broth microdilution; conditions: Streptococcus agalactiae
E. faecalis GC 4555 = test: MIC, broth microdilution; conditions: Enterococcus faecalis
Protocol: as §1
Representative compounds were first incubated in mouse serum for an hour prior to the in vitro testing against a panel of selected gram-positive and gram-negative bacteria strains. All compounds were also pre-incubated in water for an hour prior to testing as control. Representative compounds of Formula I were incubated in human serum prior to MIC determination.

S. typhimurium GC 2172 = test: MIC, broth microdilution; conditions: Salmonella enterica, TYPHIMURIUM
S. epidermidis GC 4935 = test: MIC, broth microdilution; conditions: Staphylococcus epidermidis
E. faecalis GC 2242 = test: MIC, broth microdilution; conditions: Enterococcus faecalis
E. coli GC 4560 = test: MIC, broth microdilution; conditions: Escherichia coli
[1] = read-out: MINIMAL INHIBITORY CONCENTRATION MIC, pre-incubated in Mouse Serum
[2] = read-out: MINIMAL INHIBITORY CONCENTRATION MIC, pre-incubated in Water

CCCN(CC(=O)Nc1cc(N(C)C)c2c(c1O)C(=O)C1=C(O)[C@]3(O)C(=O)C(C(N)=O)=C(O)[C@@H](N(C)C)[C@@H]3C[C@@H]1C2)C(=O)OCOC(=O)c1ccsc1 [Example 27, ({[(2-{[(5aR,6aS,7S,10aS)-9-(aminocarbonyl)-4,7-bis(dimethylamino)-1,8,10a,11-tetrahydroxy-10,12-dioxo-5,5a,6,6a,7,10,10a,12-octahydrotetracen-2-yl]amino}-2-oxoethyl)(propyl)amino]carbonyl}oxy)methyl thiophene-3-carboxylate]
2 µg/mL: MIC (S. pneumoniae+ GC 4465; [2]) | MIC (S. aureus GC 6467; GC6467, read-out: MINIMAL INHIBITORY CONCENTRATION MIC, pre-incubated in Mouse Serum) | MIC (S. aureus GC 6467; GC6467, read-out: MINIMAL INHIBITORY CONCENTRATION MIC, pre-incubated in Water) | MIC (E. faecalis GC 2267; GC2267, read-out: MINIMAL INHIBITORY CONCENTRATION MIC, pre-incubated in Water) | MIC (S. aureus GC 1079; GC1079, read-out: MINIMAL INHIBITORY CONCENTRATION MIC, pre-incubated in Water)
>64 UG/ML: MINIMAL INHIBITORY CONCENTRATION MIC (c. albicans GC 3066; pre-incubated in Water)
0.44 mg/kg: ED50 (Staph. aureus Smith; Staphylococcus aureus, in Mus musculus, iv, read-out: ED50 SIV (Staph aureus Smith)) | ED50 (Staph. aureus Smith; iv, read-out: ED50 Staph Smith SIV)
32 µg/mL: MIC (E. coli GC 2272; GC2272, read-out: MINIMAL INHIBITORY CONCENTRATION MIC, pre-incubated in Water)
0.5 µg/mL: MIC (E. coli GC 1073; GC1073, read-out: MINIMAL INHIBITORY CONCENTRATION MIC, pre-incubated in Mouse Serum) | MIC (E. coli GC 4559; GC4559, read-out: MINIMAL INHIBITORY CONCENTRATION MIC, pre-incubated in Mouse Serum) | MIC (E. coli GC 2235; GC2235, read-out: MINIMAL INHIBITORY CONCENTRATION MIC, pre-incubated in Mouse Serum) | MIC (E. coli GC 2272; GC2272, read-out: MINIMAL INHIBITORY CONCENTRATION MIC, pre-incubated in Mouse Serum) | MIC (E. faecalis GC 2242; GC2242, read-out: MINIMAL INHIBITORY CONCENTRATION MIC, pre-incubated in Mouse Serum) | MIC (E. faecalis GC 2242; GC2242, read-out: MINIMAL INHIBITORY CONCENTRATION MIC, pre-incubated in Water)
0.12 µg/mL: MIC (S. aureus GC 4536; GC4536, read-out: MINIMAL INHIBITORY CONCENTRATION MIC, pre-incubated in Mouse Serum) | MIC (S. aureus GC 4536; GC4536, read-out: MINIMAL INHIBITORY CONCENTRATION MIC, pre-incubated in Water) | MIC (S. aureus GC 1131; GC1131, read-out: MINIMAL INHIBITORY CONCENTRATION MIC, pre-incubated in Mouse Serum) | MIC (S. agalactiae GC 4564; GC4564, read-out: MINIMAL INHIBITORY CONCENTRATION MIC, pre-incubated in Mouse Serum) | MIC (S. agalactiae GC 4564; GC4564, read-out: MINIMAL INHIBITORY CONCENTRATION MIC, pre-incubated in Water)
< 0.06 µg/mL: MIC (S. pneumoniae* GC 4465; [1]) | MIC (S. pneumoniae* GC 4465; [2])
0.25 µg/mL: MIC (S. aureus GC 1131; GC1131, read-out: MINIMAL INHIBITORY CONCENTRATION MIC, pre-incubated in Water) | MIC (E. faecalis GC 4555; GC4555, read-out: MINIMAL INHIBITORY CONCENTRATION MIC, pre-incubated in Mouse Serum) | MIC (S. epidermidis GC 4935; GC4935, read-out: MINIMAL INHIBITORY CONCENTRATION MIC, pre-incubated in Mouse Serum) | MIC (E. coli GC 4560; GC4560, read-out: MINIMAL INHIBITORY CONCENTRATION MIC, pre-incubated in Mouse Serum)
> 64 µg/mL: MIC (E. coli GC 1073; GC1073, read-out: MINIMAL INHIBITORY CONCENTRATION MIC, pre-incubated in Water) | MIC (E. coli GC 4559; GC4559, read-out: MINIMAL INHIBITORY CONCENTRATION MIC, pre-incubated in Water) | MIC (c. albicans GC 3066; Candida albicans, GC3066, read-out: MINIMAL INHIBITORY CONCENTRATION MIC) | MIC (E. coli GC 6465; GC6465, read-out: MINIMAL INHIBITORY CONCENTRATION MIC, pre-incubated in Water) | MIC (S. typhimurium GC 2172; [2])
64 µg/mL: MIC (E. coli GC 2235; GC2235, read-out: MINIMAL INHIBITORY CONCENTRATION MIC, pre-incubated in Water)
3.9 mg/kg: ED50 (Staph. aureus Smith; Staphylococcus aureus, in Mus musculus, po, read-out: ED50 SOD (Staph aureus Smith)) | ED50 (Staph. aureus Smith; Staphylococcus aureus, in Mus musculus, po, read-out: ED50 Staph Smith SOD)
1 µg/mL: MIC (S. pneumoniae+ GC 4465; [1]) | MIC (E. faecalis GC 2267; GC2267, read-out: MINIMAL INHIBITORY CONCENTRATION MIC, pre-incubated in Mouse Serum) | MIC (S. aureus GC 1079; GC1079, read-out: MINIMAL INHIBITORY CONCENTRATION MIC, pre-incubated in Mouse Serum) | MIC (E. faecalis GC 4555; GC4555, read-out: MINIMAL INHIBITORY CONCENTRATION MIC, pre-incubated in Water) | MIC (S. epidermidis GC 4935; GC4935, read-out: MINIMAL INHIBITORY CONCENTRATION MIC, pre-incubated in Water) | MIC (E. coli GC 4560; GC4560, read-out: MINIMAL INHIBITORY CONCENTRATION MIC, pre-incubated in Water)
4 µg/mL: MIC (E. coli GC 6465; GC6465, read-out: MINIMAL INHIBITORY CONCENTRATION MIC, pre-incubated in Mouse Serum) | MIC (S. typhimurium GC 2172; [1])

— US20070049564A1 (Wyeth, priority 2005, published 2007)
